The text below walks through data of patent publication US11059808B2, “Substituted phenylpyrrolecarboxamides with therapeutic activity in HIV” (New York Blood Center, Inc., priority 2014, dated 2021).

In one data set the test system is TZM-bl cells. Description: Cytotoxicity in TZM-bl cells (XTT). Type of data set: cell-based. The conditions noted are these: for CC50: XTT, 3 days. The method, then:
The cytotoxicity of test compounds in TZM-bl cells was also measured by the XTT method described previously^7. […] The soluble intracellular formazan was quantitated colorimetrically at 450 nm 4 h later. The percent of cytotoxicity and the CC50 values were calculated as above. (See Table 4)

Data set [1] has as its system HIV-1 pseudovirus pseudotyped with HXB2 Env. Description: microbe, parasite or virus in culture. It counts as cell-based. The conditions noted are these: single cycle assay, TZM-bl cells infected with HIV-1 pseudovirus pseudotyped with HXB2 Env.
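For IC50 in this document: endpoint is IC50 for inhibition of pseudovirus infection of TZM-bl cells.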

Consider `Cc1nc(C(NC(=O)c2ccc(-c3ccc(Cl)c(F)c3)[nH]2)C2CCCCN2)sc1CO` (single isomer, unassigned) [Compound 21], for which, in the data set with TZM-bl cells, half-maximal cytotoxicity (CC50) was put at 17.4 ± 1.6 µM. In addition, inhibition in data set [1] was half-maximal at 3.2 ± 0.5 µM (IC50).

Compound `Cc1ccc(-c2ccc(C(=O)NC(c3nc(C)c(CO)s3)C3CCCCN3)[nH]2)cc1F` (single isomer, unassigned) [Compound 23] came in with a CC50 in the data set with TZM-bl cells of at least 36 µM. The same compound returned a half-maximal inhibitory concentration (IC50) in data set [1] of 3.8 ± 0.3 µM.

With `Cc1ccc(-c2ccc(C(=O)NC(c3nc(C)c(CCO)s3)C3CCCCN3)[nH]2)cc1F` (single isomer, unassigned) [Compound 25], it took 15.3 ± 0.2 µM to reach half-maximal cytotoxicity in the data set with TZM-bl cells (CC50). The compound further showed a half-maximal inhibitory concentration (IC50) in data set [1] of 6.3 ± 0.3 µM.

On to `Cc1nc(C(NC(=O)c2ccc(-c3ccc(Cl)c(F)c3)[nH]2)C2CCCCN2)sc1CCO` (single isomer, unassigned) [Compound 27], for which, in the data set on TZM-bl cells, the CC50 was 15.1 ± 0.2 µM. The compound also returned an IC50 in data set [1] of 8 ± 0.1 µM.

In the data set on TZM-bl cells, `Cc1nc(C(NC(=O)c2ccc(-c3ccc(Cl)cc3)[nH]2)C2CCCCN2)sc1CCO` (single isomer, unassigned) [Compound 29] returned a CC50 of 15.4 ± 0.3 µM. In data set [1], this compound had an IC50 of 5.9 ± 0.2 µM.

With `Cc1nc(C(NC(=O)c2ccc(-c3ccc(Cl)cc3)[nH]2)C2CCCCN2)[nH]c1CO` (single isomer, unassigned) [Compound 34], in the data set on TZM-bl cells, the CC50 stood at 34 ± 0.1 µM. This compound came in with a half-inhibitory concentration (IC50) in data set [1] of 16 ± 0.1 µM.

For `Cc1nc(C(NC(=O)c2ccc(-c3ccc(Cl)c(F)c3)[nH]2)C2CCCCN2)[nH]c1CO` (single isomer, unassigned) [Compound 36], the midpoint of cytotoxicity in the data set on TZM-bl cells, the CC50, lay at 31.5 ± 0.2 µM. Further, the IC50 in data set [1] was determined as 16.2 ± 0.2 µM.

As for `Cc1nc(C(CN)NC(=O)c2ccc(-c3ccc(Cl)cc3)[nH]2)sc1CO` (single isomer, unassigned) [Compound 40], in the data set on TZM-bl cells, the CC50 was around 40 µM.

With `Cc1nc(C(CN)NC(=O)c2ccc(-c3ccc(Cl)c(F)c3)[nH]2)sc1CO` (single isomer, unassigned) [Compound 42], in the data set on TZM-bl cells, the CC50 was at least 33 µM.

`Cc1nc(C(CN)NC(=O)c2ccc(-c3ccc(Cl)c(F)c3)[nH]2)sc1CO` (single isomer, unassigned) [Compound 52] had a CC50 with TZM-bl cells of 50.5 ± 1.3 µM.

In the data set on TZM-bl cells, `CNCC(NC(=O)c1ccc(-c2ccc(C)c(F)c2)[nH]1)c1nc(C)c(CO)s1` (single isomer, unassigned) [Compound 55] came in with a CC50 of around 40 µM.

Consider `CNCC(NC(=O)c1ccc(-c2ccc(Cl)cc2)[nH]1)c1nc(C)c(CO)s1` (single isomer, unassigned) [Compound 59], for which, in the data set with TZM-bl cells, the CC50 was around 22 µM.

In turn, `CC(=O)NCC(NC(=O)c1ccc(-c2ccc(Cl)c(F)c2)[nH]1)c1nc(C)c(CO)s1` (single isomer, unassigned) [Compound 60] registered a CC50 in the data set on TZM-bl cells above 44 µM.

Regarding `CC(=O)NCC(NC(=O)c1ccc(-c2ccc(Cl)c(F)c2)[nH]1)c1nc(C)c(CO)s1` (single isomer, unassigned) [Compound 61], the CC50 in the data set with TZM-bl cells was above 44 µM.

`Cc1nc(C(CN(C)C)NC(=O)c2ccc(-c3ccc(Cl)cc3)[nH]2)sc1CO` (single isomer, unassigned) [Compound 63] gave a CC50 in the data set on TZM-bl cells of around 30 µM.

Regarding `Cc1cc(-c2ccc(Cl)cc2)[nH]c1C(=O)NC(CN)c1nc(C)c(CO)s1` (single isomer, unassigned) [Compound 69], in the data set with TZM-bl cells, it took 27.2 ± 0.8 µM to reach half-maximal cytotoxicity (CC50).

`Cc1nc(C(CN)NC(=O)c2cnc(-c3ccc(Cl)cc3)[nH]2)sc1CO` (single isomer, unassigned) [Compound 94] yielded a CC50 in the data set with TZM-bl cells above 51 µM.

`Cc1cc(C(=O)NC(CN)c2nc(C)c(CO)s2)[nH]c1-c1ccc(Cl)cc1` (single isomer, unassigned) [Compound 98] yielded a CC50 in the data set on TZM-bl cells of 22.2 ± 0.3 µM.

Compound `Cc1ccc(-c2ccc(C(=O)NC(CN)c3ncc(CO)s3)[nH]2)cc1F` (single isomer, unassigned) [Compound 100] registered a CC50 with TZM-bl cells of 39.2 ± 0.8 µM. Compared with the last compound, the CC50 is about 1.8-fold higher.

With `Cc1nc(C(CN)NC(=O)c2ccc(-c3ccc(F)c(F)c3)[nH]2)sc1CO` (single isomer, unassigned) [Compound 122], the CC50 in the data set with TZM-bl cells is above 51 µM. Besides, the “percentage in brackets after CC50 >51” value in the data set on TZM-bl cells (printed "(30%)" without explanation, presumably toxicity at 51 μM) amounted to 30%.

Consider `CNc1cc(NC(=O)c2ccc(-c3ccc(F)c(Cl)c3)[nH]2)nc(NC(=N)N)n1` [Compound 53], for which the CC50 with TZM-bl cells was at least 36 µM.

In general, CC50 refers to the concentration at which the toxic effect on the cells reaches its halfway point. A higher CC50 goes with better tolerance by the cells. Broadly, the IC50 is the midpoint of a concentration-inhibition curve. A low value points to greater potency.
